Source: ChEMBL document CHEMBL3885881, “DrugMatrix”

Organism: Rattus norvegicus
Test: DrugMatrix - Regimen: Daily Repeat
Type: toxicity, organism-based, Sprague-Dawley
Set-up: regimen Daily Repeat, gender Male, age 6-8 weeks
Settings: in vivo, po, route oral GAVAGE, vehicle 100 % WATER; for ABSOLUTE BASOPHIL / ABSOLUTE EOSINOPHIL / ABSOLUTE LYMPHOCYTE / ABSOLUTE MONOCYTE / ABSOLUTE SEGMENTED NEUTROPHIL / BASOPHIL / EOSINOPHIL / ERYTHROCYTE COUNT / HEMATOCRIT / HEMOGLOBIN / LEUKOCYTE COUNT / LYMPHOCYTE / MEAN CORPUSCULAR HEMOGLOBIN / MEAN CORPUSCULAR HEMOGLOBIN CONCENTRATION / MEAN CORPUSCULAR VOLUME / MONOCYTE / NEUTROPHIL / NUCLEATED RED BLOOD CELLS / PLATELET COUNT: tissue Blood; for ALANINE AMINOTRANSFERASE / ALBUMIN / ALKALINE PHOSPHATASE / ASPARTATE AMINOTRANSFERASE / BLOOD UREA NITROGEN / CARBON DIOXIDE / CHLORIDE / CHOLESTEROL / CREATINE PHOSPHOKINASE / CREATININE / GLUCOSE / LACTATE DEHYDROGENASE / LIPASE / PHOSPHORUS / POTASSIUM / SODIUM / TOTAL BILIRUBIN / TOTAL PROTEIN / URIC ACID: tissue Plasma
[1] = 60 mg/kg, 72 h, dose level Low, time 3 day
[2] = 60 mg/kg, 120 h, dose level Low, time 5 day
[3] = 600 mg/kg, 72 h, dose level High, time 3 day
[4] = 600 mg/kg, 120 h, dose level High, time 5 day

Structure (SMILES): C=C(Cl)Cl [1,1-DICHLOROETHENE]
- ABSOLUTE BASOPHIL [1]: 0 CELLS/uL
- ABSOLUTE EOSINOPHIL [1]: 51.33 CELLS/uL
- ABSOLUTE LYMPHOCYTE [1]: 13010.33 CELLS/uL
- ABSOLUTE MONOCYTE [1]: 288.67 CELLS/uL
- ABSOLUTE SEGMENTED NEUTROPHIL [1]: 1149.67 CELLS/uL
- BASOPHIL [1]: 0%
- EOSINOPHIL [1]: 0.33%
- ERYTHROCYTE COUNT [1]: 5.5 x10E6/uL
- HEMATOCRIT [1]: 34%
- HEMOGLOBIN [1]: 13.53 G/DL
- LEUKOCYTE COUNT [1]: 14.5 x10E3/uL
- LYMPHOCYTE [1]: 89.67%
- MEAN CORPUSCULAR HEMOGLOBIN [1]: 24.63 pg
- MEAN CORPUSCULAR HEMOGLOBIN CONCENTRATION [1]: 39.83 G/DL
- MEAN CORPUSCULAR VOLUME [1]: 61.83 fL
- MONOCYTE [1]: 2%
- NEUTROPHIL [1]: 8%
- NUCLEATED RED BLOOD CELLS [1]: 0.33 /100WBC
- PLATELET COUNT [1]: 1358.33 x10E3/uL
- ALANINE AMINOTRANSFERASE [1]: 52 u/L
- ALBUMIN [1]: 4.13 G/DL
- ALKALINE PHOSPHATASE [1]: 441.67 u/L
- ASPARTATE AMINOTRANSFERASE [1]: 84.67 u/L
- BLOOD UREA NITROGEN [1]: 15 mg/dL
- CARBON DIOXIDE [1]: 24.33 mmol/L
- CHLORIDE [1]: 102 MEQ/L
- CHOLESTEROL [1]: 73.33 mg/dL
- CREATINE PHOSPHOKINASE [1]: 314 u/L
- CREATININE [1]: 0.14 mg/dL
- GLUCOSE [1]: 162 mg/dL
- LACTATE DEHYDROGENASE [1]: 291.33 u/L
- LIPASE [1]: 9 u/L
- PHOSPHORUS [1]: 13 mg/dL
- POTASSIUM [1]: 6.27 MEQ/L
- SODIUM [1]: 144.17 MEQ/L
- TOTAL BILIRUBIN [1]: 0.13 mg/dL
- TOTAL PROTEIN [1]: 5.77 G/DL
- URIC ACID [1]: 1.43 mg/dL
- ABSOLUTE BASOPHIL [2]: 0 CELLS/uL
- ABSOLUTE EOSINOPHIL [2]: 128.33 CELLS/uL
- ABSOLUTE LYMPHOCYTE [2]: 16922 CELLS/uL
- ABSOLUTE MONOCYTE [2]: 76.33 CELLS/uL
- ABSOLUTE SEGMENTED NEUTROPHIL [2]: 1473.33 CELLS/uL
- BASOPHIL [2]: 0%
- EOSINOPHIL [2]: 0.67%
- ERYTHROCYTE COUNT [2]: 5.28 x10E6/uL
- HEMATOCRIT [2]: 33.8%
- HEMOGLOBIN [2]: 13.87 G/DL
- LEUKOCYTE COUNT [2]: 18.6 x10E3/uL
- LYMPHOCYTE [2]: 91.33%
- MEAN CORPUSCULAR HEMOGLOBIN [2]: 26.23 pg
- MEAN CORPUSCULAR HEMOGLOBIN CONCENTRATION [2]: 41.07 G/DL
- MEAN CORPUSCULAR VOLUME [2]: 63.9 fL
- MONOCYTE [2]: 0.33%
- NEUTROPHIL [2]: 7.67%
- NUCLEATED RED BLOOD CELLS [2]: 0 /100WBC
- PLATELET COUNT [2]: 1031 x10E3/uL
- ALANINE AMINOTRANSFERASE [2]: 56.67 u/L
- ALBUMIN [2]: 4.23 G/DL
- ALKALINE PHOSPHATASE [2]: 282 u/L
- ASPARTATE AMINOTRANSFERASE [2]: 78 u/L
- BLOOD UREA NITROGEN [2]: 16.67 mg/dL
- CARBON DIOXIDE [2]: 23.67 mmol/L
- CHLORIDE [2]: 103.67 MEQ/L
- CHOLESTEROL [2]: 71.67 mg/dL
- CREATINE PHOSPHOKINASE [2]: 168.67 u/L
- CREATININE [2]: 0.22 mg/dL
- GLUCOSE [2]: 147.33 mg/dL
- LACTATE DEHYDROGENASE [2]: 101.67 u/L
- LIPASE [2]: 9.33 u/L
- PHOSPHORUS [2]: 13.27 mg/dL
- POTASSIUM [2]: 6.62 MEQ/L
- SODIUM [2]: 147.33 MEQ/L
- TOTAL BILIRUBIN [2]: 0.2 mg/dL
- TOTAL PROTEIN [2]: 5.9 G/DL
- URIC ACID [2]: 1.67 mg/dL
- ABSOLUTE BASOPHIL [3]: 0 CELLS/uL
- ABSOLUTE EOSINOPHIL [3]: 0 CELLS/uL
- ABSOLUTE LYMPHOCYTE [3]: 19725 CELLS/uL
- ABSOLUTE MONOCYTE [3]: 397.33 CELLS/uL
- ABSOLUTE SEGMENTED NEUTROPHIL [3]: 2311 CELLS/uL
- BASOPHIL [3]: 0%
- EOSINOPHIL [3]: 0%
- ERYTHROCYTE COUNT [3]: 5.83 x10E6/uL
- HEMATOCRIT [3]: 37.37%
- HEMOGLOBIN [3]: 15.3 G/DL
- LEUKOCYTE COUNT [3]: 22.43 x10E3/uL
- LYMPHOCYTE [3]: 88.33%
- MEAN CORPUSCULAR HEMOGLOBIN [3]: 26.2 pg
- MEAN CORPUSCULAR HEMOGLOBIN CONCENTRATION [3]: 40.93 G/DL
- MEAN CORPUSCULAR VOLUME [3]: 64 fL
- MONOCYTE [3]: 2%
- NEUTROPHIL [3]: 9.67%
- NUCLEATED RED BLOOD CELLS [3]: 0.33 /100WBC
- PLATELET COUNT [3]: 1189.67 x10E3/uL
- ALANINE AMINOTRANSFERASE [3]: 61.33 u/L
- ALBUMIN [3]: 4.23 G/DL
- ALKALINE PHOSPHATASE [3]: 458.33 u/L
- ASPARTATE AMINOTRANSFERASE [3]: 80 u/L
- BLOOD UREA NITROGEN [3]: 11.33 mg/dL
- CARBON DIOXIDE [3]: 26 mmol/L
- CHLORIDE [3]: 103.67 MEQ/L
- CHOLESTEROL [3]: 79.67 mg/dL
- CREATINE PHOSPHOKINASE [3]: 213.67 u/L
- CREATININE [3]: 0.17 mg/dL
- GLUCOSE [3]: 159 mg/dL
- LACTATE DEHYDROGENASE [3]: 74.33 u/L
- LIPASE [3]: 9.67 u/L
- PHOSPHORUS [3]: 12.7 mg/dL
- POTASSIUM [3]: 6.59 MEQ/L
- SODIUM [3]: 144.9 MEQ/L
- TOTAL BILIRUBIN [3]: 0.2 mg/dL
- TOTAL PROTEIN [3]: 5.83 G/DL
- URIC ACID [3]: 1.9 mg/dL
- ABSOLUTE BASOPHIL [4]: 0 CELLS/uL
- ABSOLUTE EOSINOPHIL [4]: 0 CELLS/uL
- ABSOLUTE LYMPHOCYTE [4]: 18262.67 CELLS/uL
- ABSOLUTE MONOCYTE [4]: 288.67 CELLS/uL
- ABSOLUTE SEGMENTED NEUTROPHIL [4]: 2115.33 CELLS/uL
- BASOPHIL [4]: 0%
- EOSINOPHIL [4]: 0%
- ERYTHROCYTE COUNT [4]: 5.83 x10E6/uL
- HEMATOCRIT [4]: 36.67%
- HEMOGLOBIN [4]: 14.73 G/DL
- LEUKOCYTE COUNT [4]: 20.67 x10E3/uL
- LYMPHOCYTE [4]: 89%
- MEAN CORPUSCULAR HEMOGLOBIN [4]: 25.23 pg
- MEAN CORPUSCULAR HEMOGLOBIN CONCENTRATION [4]: 40.2 G/DL
- MEAN CORPUSCULAR VOLUME [4]: 62.87 fL
- MONOCYTE [4]: 1.33%
- NEUTROPHIL [4]: 9.67%
- NUCLEATED RED BLOOD CELLS [4]: 0.33 /100WBC
- PLATELET COUNT [4]: 1233.33 x10E3/uL
- ALANINE AMINOTRANSFERASE [4]: 48 u/L
- ALBUMIN [4]: 4.23 G/DL
- ALKALINE PHOSPHATASE [4]: 376.33 u/L
- ASPARTATE AMINOTRANSFERASE [4]: 81 u/L
- BLOOD UREA NITROGEN [4]: 14.67 mg/dL
- CARBON DIOXIDE [4]: 23.33 mmol/L
- CHLORIDE [4]: 102 MEQ/L
- CHOLESTEROL [4]: 75 mg/dL
- CREATINE PHOSPHOKINASE [4]: 337.67 u/L
- CREATININE [4]: 0.21 mg/dL
- GLUCOSE [4]: 150.33 mg/dL
- LACTATE DEHYDROGENASE [4]: 117.33 u/L
- LIPASE [4]: 10 u/L
- PHOSPHORUS [4]: 12.33 mg/dL
- POTASSIUM [4]: 7.1 MEQ/L
- SODIUM [4]: 144.9 MEQ/L
- TOTAL BILIRUBIN [4]: 0.2 mg/dL
- TOTAL PROTEIN [4]: 6.1 G/DL
- URIC ACID [4]: 1.77 mg/dL
